Data: PubChem BioAssay AID492984 (Sanford-Burnham Center for Chemical Genomics, 2010)
The source made the active and inactive calls.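 How the source made its calls: active means IC50 below 20 µM in the dose response test; inactive means the rest.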

molecular target: Type-1 angiotensin II receptor (Homo sapiens) (UniProt P30556); test: AGTR1 antagonism selectivity check – cell-based, CHO-K1 PathHunter, luminescence, set 3, selectivity assay for APJ antagonist project, SAR follow-up (AID 492984); settings: CHO-K1 AGTR1 PathHunter beta-arrestin
Sequence (P30556 whole entry, looked up): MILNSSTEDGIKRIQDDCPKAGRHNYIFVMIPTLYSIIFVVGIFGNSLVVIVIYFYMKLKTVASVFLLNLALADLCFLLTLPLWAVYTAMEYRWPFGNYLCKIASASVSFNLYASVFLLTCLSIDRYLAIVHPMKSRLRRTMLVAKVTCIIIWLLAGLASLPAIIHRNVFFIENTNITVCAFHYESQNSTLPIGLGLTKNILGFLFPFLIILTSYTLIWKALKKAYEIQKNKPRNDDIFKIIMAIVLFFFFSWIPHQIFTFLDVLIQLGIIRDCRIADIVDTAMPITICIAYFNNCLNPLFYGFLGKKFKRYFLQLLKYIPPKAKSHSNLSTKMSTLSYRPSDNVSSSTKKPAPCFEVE

IC50, inactive:
Cc1cc(C)nc(SCc2cc(=O)c(OS(=O)(=O)c3ccc([N+](=O)[O-])cc3)co2)n1 > 79 µM
Cc1cc(C)nc(SCc2cc(=O)c(OS(=O)(=O)c3ccccc3)co2)n1 > 79 µM
Cc1ccnc(SCc2cc(=O)c(NC(=O)c3ccccc3)co2)n1 > 79 µM
O=c1cc(CSc2ccc(F)cc2)occ1O > 79 µM
O=C(Oc1coc(CSc2ncccn2)cc1=O)c1ccc([N+](=O)[O-])cc1 > 79 µM
Cc1ccnc(SCc2cc(=O)c(OC(=O)c3cccc(C#N)c3)co2)n1 > 79 µM
O=C(Oc1coc(CCl)cc1=O)c1ccc(Cl)c([N+](=O)[O-])c1 > 79 µM
